In assay [1] the test system is Candida albicans. In words: Antifungal activity on Candida albicans MY1208. Format: functional.
For a further assay, the system named is Candida parapsilosis. In words: Antifungal activity on Candida parapsilosis MY1010. Format: functional. The following applies: Lodderomyces parapsilosis.
The test system of assay [2] is Candida albicans. In words: Concentration inhibiting Candida beta-1,3-glucan synthesis was determined in a Candida albicans cell culture. Format: functional, organism-based.
The subject of the next assay is Candida tropicalis. Briefly: Antifungal activity on Candida tropicalis MY101. The format is functional.
For assay [3], the system named is Candida albicans. In words: Antifungal activity on Candida albicans MY1028. The format is functional.
Assay [4] relates to Candida albicans. In words: Antifungal activity on Candida albicans MY1055. The format is functional.

Converted amounts (≈) assume the structure as drawn. Starred links: 1 amine or outer side, 2 acyl side, 3 side chain; linkers in the order of their positions; H or OH if unused. Positions of bridges follow the written chain, without caps; N, C: chain ends. Non-standard residues stand in square brackets, D forms with d. Residues, ends and D or L forms follow the SMILES beside them. *: point of attachment. Orn(4R-OH,5R-OH) = O=C([C@H](C[C@@H](O)[C@@H](O)N[*:3])N[*:1])[*:2]; hTyr(3S-OH,4S-OH) = N[C@H](C(=O)O)[C@H](O)[C@@H](O)c1ccc(O)cc1; Pro(3S-OH,4S-Me) = C[C@H]1CN[C@H](C(=O)O)[C@H]1O; Benzoyl(4-octyloxy) = CCCCCCCCOc1ccc(C(=O)*)cc1; hTyr = N[C@@H](CCc1ccc(O)cc1)C(=O)O; Hyp = O=C(O)[C@@H]1C[C@@H](O)CN1; Orn = NCCC[C@H](N)C(=O)O

As a reminder, the MFC is the lowest tested concentration that kills the fungus rather than only halting it. Higher therefore signals weaker fungicidal potency. For orientation: IC50 means the concentration at which inhibition is half-maximal.

Turning to `C[C@@H](O)[C@@H]1NC(=O)[C@H](CCc2ccc(O)cc2)NC(=O)[C@@H]2C[C@@H](O)CN2C(=O)[C@H]([C@@H](C)O)NC(=O)[C@@H](N)CCCNC(=O)[C@H]([C@@H](C)O)NC1=O` (H-[Orn]T[Hyp][hTyr]TT; lactam 1-C), the MFC in the assay on Candida albicans [1] is 8 µg/mL (≈ 11.3 µM); against Candida parapsilosis, above 128 µg/mL; in the assay with Candida tropicalis, 4 µg/mL (≈ 5.65 µM); in the assay on Candida albicans [3], 8 µg/mL (≈ 11.3 µM); against Candida albicans [4] it was 8 µg/mL (≈ 11.3 µM). The molecule also registered a 50% inhibitory concentration (IC50) in the assay with Candida albicans [2] above 10 µM.
For the molecule `CCCCCCCCOc1ccc(C(=O)N[C@H]2CCCNC(=O)[C@@H]3CCCN3C(=O)[C@H]([C@@H](C)O)NC(=O)[C@H](Cc3ccc(O)cc3)NC(=O)[C@@H]3CCCN3C(=O)[C@H]([C@@H](C)O)NC2=O)cc1` ({Benzoyl(4-octyloxy)}-[Orn]TPYTP; lactam 1-C), the minimum fungicidal concentration (MFC) against Candida albicans [1], with Candida tropicalis, in the assay with Candida albicans [3] and against Candida albicans [4] was above 64 µg/mL each time. The half-maximal inhibitory concentration (IC50) in the assay on Candida albicans [2] was above 10 µM.
As for `CCCCCCCCOc1ccc(C(=O)N[C@H]2CCCNC(=O)[C@@H]3C[C@@H](O)CN3C(=O)[C@H]([C@@H](C)O)NC(=O)[C@H](Cc3ccc(O)cc3)NC(=O)[C@@H]3CCCN3C(=O)[C@H]([C@@H](C)O)NC2=O)cc1` ({Benzoyl(4-octyloxy)}-[Orn]TPYT[Hyp]; lactam 1-C), the minimum fungicidal concentration (MFC) in the assay with Candida albicans [1], in the assay on Candida parapsilosis, in the assay with Candida tropicalis, against Candida albicans [3] and with Candida albicans [4] was above 128 µg/mL in each case. In the assay with Candida albicans [2], this molecule registered an IC50 above 10 µM.
In the case of `CCCCCCCCOc1ccc(C(=O)N[C@H]2CCCNC(=O)[C@@H]3CCCN3C(=O)[C@H]([C@@H](C)O)NC(=O)[C@H](CCc3ccc(O)cc3)NC(=O)[C@@H]3CCCN3C(=O)[C@H]([C@@H](C)O)NC2=O)cc1` ({Benzoyl(4-octyloxy)}-[Orn]TP[hTyr]TP; lactam 1-C), the MFC in the assay on Candida albicans [1] is 4 µg/mL (≈ 4.35 µM); with Candida parapsilosis, above 128 µg/mL; in the assay on Candida tropicalis, 4 µg/mL (≈ 4.35 µM); with Candida albicans [4], 4 µg/mL (≈ 4.35 µM). Besides, the concentration for half-maximal inhibition (IC50) with Candida albicans [2] is above 10 µM.
On to `CCCCCCCCOc1ccc(C(=O)N[C@H]2CCCNC(=O)[C@@H]3CCCN3C(=O)[C@H]([C@@H](C)O)NC(=O)[C@H](Cc3ccc(O)cc3)NC(=O)[C@@H]3C[C@@H](O)CN3C(=O)[C@H]([C@@H](C)O)NC2=O)cc1` ({Benzoyl(4-octyloxy)}-[Orn]T[Hyp]YTP; lactam 1-C), for which the minimum fungicidal concentration (MFC) against Candida albicans [1], against Candida parapsilosis, in the assay with Candida tropicalis and in the assay with Candida albicans [3] was above 128 µg/mL each time. In the assay on Candida albicans [2], the IC50 was above 10 µM.
`CCCCCCCCOc1ccc(C(=O)N[C@H]2CCCNC(=O)[C@@H]3C[C@@H](O)CN3C(=O)[C@H]([C@@H](C)O)NC(=O)[C@H](Cc3ccc(O)cc3)NC(=O)[C@@H]3C[C@@H](O)CN3C(=O)[C@H]([C@@H](C)O)NC2=O)cc1` ({Benzoyl(4-octyloxy)}-[Orn]T[Hyp]YT[Hyp]; lactam 1-C): the minimum fungicidal concentration (MFC) against Candida albicans [1], against Candida parapsilosis, with Candida tropicalis, in the assay with Candida albicans [3] and against Candida albicans [4] was above 128 µg/mL in each case. For the same molecule, the half-maximal inhibitory concentration (IC50) in the assay on Candida albicans [2] is above 10 µM.
As to `CCCCCCCCOc1ccc(C(=O)N[C@H]2CCCNC(=O)[C@@H]3[C@@H](O)[C@@H](C)CN3C(=O)[C@H]([C@@H](C)O)NC(=O)[C@H](Cc3ccc(O)cc3)NC(=O)[C@@H]3C[C@@H](O)CN3C(=O)[C@H]([C@@H](C)O)NC2=O)cc1` ({Benzoyl(4-octyloxy)}-[Orn]T[Hyp]YT[Pro(3S-OH,4S-Me)]; lactam 1-C), the MFC against Candida albicans [1], against Candida parapsilosis, against Candida tropicalis, in the assay with Candida albicans [3] and in the assay on Candida albicans [4] was above 128 µg/mL throughout.
Turning to `CCCCCCCCOc1ccc(C(=O)N[C@H]2CCCNC(=O)[C@@H]3CCCN3C(=O)[C@H]([C@@H](C)O)NC(=O)[C@H](CCc3ccc(O)cc3)NC(=O)[C@@H]3C[C@@H](O)CN3C(=O)[C@H]([C@@H](C)O)NC2=O)cc1` ({Benzoyl(4-octyloxy)}-[Orn]T[Hyp][hTyr]TP; lactam 1-C), the MFC was determined as 4 µg/mL (≈ 4.27 µM) with Candida albicans [1]; 8 µg/mL (≈ 8.55 µM) against Candida parapsilosis; 0.25 µg/mL (≈ 0.267 µM) with Candida tropicalis; 4 µg/mL (≈ 4.27 µM) against Candida albicans [3]; 8 µg/mL (≈ 8.55 µM) with Candida albicans [4]. The same molecule registered an IC50 with Candida albicans [2] of 10 µM.
For `CCCCCCCCOc1ccc(C(=O)N[C@H]2CCCNC(=O)[C@@H]3C[C@@H](O)CN3C(=O)[C@H]([C@@H](C)O)NC(=O)[C@H](CCc3ccc(O)cc3)NC(=O)[C@@H]3C[C@@H](O)CN3C(=O)[C@H]([C@@H](C)O)NC2=O)cc1` ({Benzoyl(4-octyloxy)}-[Orn]T[Hyp][hTyr]T[Hyp]; lactam 1-C), the MFC is 8 µg/mL (≈ 8.4 µM) against Candida albicans [1]; above 128 µg/mL with Candida parapsilosis; 8 µg/mL (≈ 8.4 µM) with Candida tropicalis; 8 µg/mL (≈ 8.4 µM) in the assay with Candida albicans [3]; 8 µg/mL (≈ 8.4 µM) against Candida albicans [4]. In the assay on Candida albicans [2], this molecule gave an IC50 of 10 µM.
Regarding `CCCCCCCCOc1ccc(C(=O)N[C@H]2CCCNC(=O)[C@@H]3[C@@H](O)[C@@H](C)CN3C(=O)[C@H]([C@@H](C)O)NC(=O)[C@H](CCc3ccc(O)cc3)NC(=O)[C@@H]3C[C@@H](O)CN3C(=O)[C@H]([C@@H](C)O)NC2=O)cc1` ({Benzoyl(4-octyloxy)}-[Orn]T[Hyp][hTyr]T[Pro(3S-OH,4S-Me)]; lactam 1-C), the minimum fungicidal concentration (MFC) in the assay on Candida albicans [1] turned out to be 2 µg/mL (≈ 2.07 µM); with Candida parapsilosis, 8 µg/mL (≈ 8.28 µM); with Candida tropicalis, 1 µg/mL (≈ 1.04 µM); with Candida albicans [3], 2 µg/mL (≈ 2.07 µM); with Candida albicans [4] it was 1 µg/mL (≈ 1.04 µM). The 50% inhibitory concentration (IC50) in the assay with Candida albicans [2] was 3 µM.
For `CCCCCCCCOc1ccc(C(=O)N[C@H]2C[C@@H](O)[C@@H](O)NC(=O)[C@@H]3[C@@H](O)[C@@H](C)CN3C(=O)[C@H]([C@@H](C)O)NC(=O)[C@H]([C@H](O)[C@@H](O)c3ccc(O)cc3)NC(=O)[C@@H]3C[C@@H](O)CN3C(=O)[C@H]([C@@H](C)O)NC2=O)cc1` [CILOFUNGIN] ({Benzoyl(4-octyloxy)}-[Orn(4R-OH,5R-OH)]T[Hyp][hTyr(3S-OH,4S-OH)]T[Pro(3S-OH,4S-Me)]; lactam 1-C), the minimal fungicidal concentration (MFC) in the assay with Candida albicans [1] amounted to 2 µg/mL (≈ 1.94 µM); in the assay with Candida parapsilosis, 8 µg/mL (≈ 7.77 µM); against Candida tropicalis it was 0.5 µg/mL (≈ 0.485 µM); in the assay with Candida albicans [3] it was 0.5 µg/mL (≈ 0.485 µM); in the assay with Candida albicans [4], 0.5 µg/mL (≈ 0.485 µM). In the assay with Candida albicans [2], this molecule yielded an IC50 of 1 µM.

Source of the values: ChEMBL document CHEMBL1125503, “Preparation and structure-activity relationships of simplified analogues of the antifungal agent cilofungin: a total synthesis approach” (J Med Chem, 1992).
